The values that follow come from patent publication US10898504B2, “Substituted nucleoside analogues for use as PRMT5 inhibitors” (Janssen Pharmaceutica NV, priority 2016, dated 2021).

One experiment addresses T1, PRMT5-MEP50 enzyme (Homo sapiens, UniProt O14744).
T1 construct: One virus expresses full length human PRMT5 with Flag-tag at N-terminus
The experiment in a line: In vitro assay (Assay 1): PRMT5-MEP50 high throughput mass spectrometer assay, inhibition of SAH formation. The experiment is classed as biochemical. The following applies: individual measurements shown, read-out: pIC50 Assay 1 (converted). In a few lines:
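Flag-PRMT5/His-MEP50 full-length human complex (Sf9-expressed), 10 nM, with 1 μM SAM and 0.3 μM histone H2A in 20 mM Tris-HCl pH 8.5, 50 mM NaCl, 5 mM MgCl2, 1 mM DTT; 60 min at 30 °C, quenched with 1% formic acid. SAH quantified by RapidFire MS; IC50 from 11-point 1:2 series fitted to four-parameter Hill equation.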

The next experiment concerns A549 cells. The experiment in a line: PD assay (Assay 2): inhibition of nuclear symmetric Arginine dimethylation (SYM10 immunohistochemistry) in A549 cells. The experiment is classed as cell-based. The following applies: individual measurements shown; for IC50: Homo sapiens, A549, PD assay in A549 cells, read-out: pIC50 Assay 2 (converted); for pIC50 Assay 2: PD assay in A549 cells. In a few lines: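 A549 cells dosed with a nine-point series (0.2% DMSO) for 48 h at 37° C, then fixed and immunostained with SYM10 anti-symmetric-dimethylarginine antibody, plus Hoechst and CellMask counterstains for high-content imaging. Nuclear signal normalized between DMSO and 10 μM reference-compound controls to derive IC50/pIC50.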

Values joined by “and” are separate entries in the source; they are usually repeats but may differ in a detail not shown here. Equal entries are not always repeated.

T1 sequence (O14744 whole entry): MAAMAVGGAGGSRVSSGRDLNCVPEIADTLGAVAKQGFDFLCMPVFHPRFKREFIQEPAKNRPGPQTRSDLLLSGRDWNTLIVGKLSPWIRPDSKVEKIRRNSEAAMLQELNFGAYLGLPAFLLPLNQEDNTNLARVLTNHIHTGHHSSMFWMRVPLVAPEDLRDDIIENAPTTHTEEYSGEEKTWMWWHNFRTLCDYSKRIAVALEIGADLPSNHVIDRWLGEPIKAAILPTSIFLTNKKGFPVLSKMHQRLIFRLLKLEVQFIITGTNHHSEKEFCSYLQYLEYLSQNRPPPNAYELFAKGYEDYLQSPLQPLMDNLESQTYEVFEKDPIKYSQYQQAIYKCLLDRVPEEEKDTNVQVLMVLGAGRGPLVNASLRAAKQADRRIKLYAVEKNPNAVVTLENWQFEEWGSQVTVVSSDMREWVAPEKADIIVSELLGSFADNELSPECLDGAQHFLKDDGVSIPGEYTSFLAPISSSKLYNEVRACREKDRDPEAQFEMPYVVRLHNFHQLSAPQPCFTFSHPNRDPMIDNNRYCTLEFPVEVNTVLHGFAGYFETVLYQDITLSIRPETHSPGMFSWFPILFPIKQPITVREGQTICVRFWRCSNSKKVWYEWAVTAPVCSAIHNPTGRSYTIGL
T1 sequence (Q9BQA1 whole entry partner): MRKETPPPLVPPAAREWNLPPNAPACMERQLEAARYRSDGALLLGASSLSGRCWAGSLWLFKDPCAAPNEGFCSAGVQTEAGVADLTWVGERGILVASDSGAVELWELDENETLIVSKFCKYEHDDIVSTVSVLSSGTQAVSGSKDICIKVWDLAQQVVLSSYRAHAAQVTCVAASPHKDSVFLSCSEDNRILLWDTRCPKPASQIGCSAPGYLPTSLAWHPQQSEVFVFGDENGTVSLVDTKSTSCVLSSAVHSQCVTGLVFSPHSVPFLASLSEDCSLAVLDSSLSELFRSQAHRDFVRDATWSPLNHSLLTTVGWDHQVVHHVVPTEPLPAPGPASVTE

On to `N#CCN1CCC2(CCCN2C[C@H]2O[C@@H](n3ccc4c(N)ncnc43)[C@H](O)[C@@H]2O)CC1` [Compound 192], for which the IC50 at PRMT5-MEP50 enzyme is 0.0692 µM; in the experiment with A549 cells, 0.0832 µM.

Regarding `CN1CC2(CCN(C[C@H]3O[C@@H](n4cnc5c(N)ncnc54)[C@H](O)[C@@H]3O)C2)C1` [Compound 5], the IC50 is 8.13 µM on PRMT5-MEP50 enzyme and greater than 10 µM with A549 cells.

As for `Nc1ncnc2c1ccn2[C@@H]1O[C@H](CN2CCCC23CCN(CCC(F)(F)F)CC3)[C@@H](O)[C@H]1O` [Compound 169], the figures for the IC50 on PRMT5-MEP50 enzyme and in the experiment with A549 cells were 0.275 µM and 0.603 µM, respectively.

As for `Nc1ncnc2c1ccn2[C@@H]1O[C@H](CN2CCCC23CCN(Cc2nc4ccccc4[nH]2)CC3)[C@@H](O)[C@H]1O` [Compound 177], the IC50 at PRMT5-MEP50 enzyme was 0.191 µM; in the experiment on A549 cells, 0.457 µM.

With `Nc1ncnc2c1ccn2[C@@H]1O[C@H](CN2CCCC3(CCCN3)C2)[C@@H](O)[C@H]1O` (single isomer, unassigned) [Compound 39], the IC50 was 0.0676 µM at PRMT5-MEP50 enzyme and 11.2 µM in the experiment on A549 cells.

On to `Nc1ncnc2c1ccn2[C@@H]1O[C@H](CN2CCCC23CCN(Cc2nccs2)CC3)[C@@H](O)[C@H]1O` [Compound 200], for which the results for the IC50 on PRMT5-MEP50 enzyme and in the experiment with A549 cells were 4.79 µM and greater than 10 µM, respectively.

`Nc1ncnc2c1ccn2[C@@H]1O[C@H](CN2C(C(F)(F)F)CCC23CCNCC3)[C@@H](O)[C@H]1O` (single isomer, unassigned) [Compound 115]: the IC50 at PRMT5-MEP50 enzyme was 0.0234 µM; in the experiment with A549 cells it was roughly 1.66 µM.

With `Nc1ncnc2c1ccn2[C@@H]1O[C@H](CN2CCCC23CCCNCC3)[C@@H](O)[C@H]1O` (single isomer, unassigned) [Compound 118], on PRMT5-MEP50 enzyme, the IC50 was 0.0355 µM. Further, the “pIC50 Assay 2” value in the experiment with A549 cells is reported as 6.29.

On to `NC[C@@H]1CC(F)(F)CN1C[C@H]1O[C@@H](n2ccc3c(N)cccc32)[C@H](O)[C@@H]1O` [Compound 71b], for which the IC50 at PRMT5-MEP50 enzyme is 0.0513 µM; in the experiment on A549 cells it was 0.562 µM.

On to `Nc1ncnn2c([C@@H]3O[C@H](CN4CC(F)(F)CC45CCNCC5)[C@@H](O)[C@H]3O)ccc12` [Compound 136], for which the figures for the IC50 at PRMT5-MEP50 enzyme and with A549 cells were 0.0501 µM and roughly 0.263 µM, respectively.

`Nc1ncnc2c1ccn2[C@@H]1O[C@H](CN2CCC(N)C2)[C@@H](O)[C@H]1O` (stereo partly drawn) [Compound 54]: the IC50 on PRMT5-MEP50 enzyme was 1.55 µM; in the experiment on A549 cells, greater than 10 µM.

Consider `NCC1CCCN(C[C@H]2O[C@@H](n3ccc4c(N)ncnc43)[C@H](O)[C@@H]2O)C1` (stereo partly drawn) [Compound 51], for which the values for the IC50 on PRMT5-MEP50 enzyme and in the experiment with A549 cells were 0.0214 µM and 1 µM, respectively.

`CC(C)C(=O)O[C@@H]1[C@H](OC(=O)C(C)C)[C@@H](CN2CC(F)(F)CC23CCN(C)CC3)O[C@H]1c1ccc2c(N)ncnn12` [Compound 105]: the IC50 on PRMT5-MEP50 enzyme was greater than 10 µM; in the experiment with A549 cells, 6.61 µM.

Take `Nc1ncnc2c1ccn2[C@@H]1O[C@H](CN2CCCC23CCNCC3)[C@@H](O)[C@H]1O` [Compound 19]: the IC50 at PRMT5-MEP50 enzyme was 0.0437 µM and 0.0115 µM. Moreover, the “pIC50 Assay 2” value with A549 cells is 6.93 and 7.24.

Consider `NCC1CCCCN1C[C@H]1O[C@@H](n2ccc3c(N)ncnc32)[C@H](O)[C@@H]1O` (stereo partly drawn) [Compound 52], for which the IC50 was 0.0102 µM on PRMT5-MEP50 enzyme and roughly 1.12 µM with A549 cells.

`CN1CCC2(CCN2C[C@H]2O[C@@H](n3cnc4c(N)ncnc43)[C@H](O)[C@@H]2O)C1` (stereo partly drawn) [Compound 3]: the IC50 at PRMT5-MEP50 enzyme was 1.66 µM; in the experiment on A549 cells it was greater than 10 µM.

For the compound `Nc1ncnc2c1ccn2[C@@H]1O[C@H](CN2CCCC23CCN(C2COC2)CC3)[C@@H](O)[C@H]1O` [Compound 198], the IC50 on PRMT5-MEP50 enzyme was 0.437 µM; with A549 cells, roughly 1.1 µM.

Take `Nc1ncnc2c1ncn2[C@@H]1O[C@H](CN2CCCCC23CNC3)[C@@H](O)[C@H]1O` [Compound 80]: the results for the IC50 on PRMT5-MEP50 enzyme and with A549 cells were 3.31 µM and greater than 10 µM, respectively.

For the compound `Nc1ncnc2c1ncn2[C@@H]1O[C@H](CN2CCCC23CCNCC3)[C@@H](O)[C@H]1O` [Compound 76], at PRMT5-MEP50 enzyme, the IC50 was 0.0891 µM and 0.0324 µM and 0.0245 µM. For the same compound, the “pIC50 Assay 2” value with A549 cells was ~5.65 and ~5.97.

As to `Nc1ncnn2c([C@@H]3O[C@H](CN4CCC[C@H]4CCN4CCOCC4)[C@@H](O)[C@H]3O)ccc12` [Compound 150], the IC50 on PRMT5-MEP50 enzyme and in the experiment with A549 cells was greater than 10 µM in each case.

Take `CN1CCCC12CN(C[C@H]1O[C@@H](n3cnc4c(N)ncnc43)[C@H](O)[C@@H]1O)C2` [Compound 7]: the IC50 is 66.1 µM on PRMT5-MEP50 enzyme and greater than 10 µM with A549 cells.

`CN1CCC2(CC1)CCN2C[C@H]1O[C@@H](n2cnc3c(N)ncnc32)[C@H](O)[C@@H]1O` [Compound 9]: the figures for the IC50 on PRMT5-MEP50 enzyme and in the experiment with A549 cells were 0.776 µM and greater than 10 µM, respectively.

As to `O[C@@H]1[C@H](O)[C@@H](CN2CCCC23CCNCC3)O[C@H]1n1cnc2cncnc21` [Compound 62], the IC50 on PRMT5-MEP50 enzyme was 0.501 µM; in the experiment with A549 cells, greater than 10 µM.

As to `CN1CCC12CCN(C[C@H]1O[C@@H](n3cnc4c(N)ncnc43)[C@H](O)[C@@H]1O)C2` (stereo partly drawn) [Compound 4], the IC50 was 2.29 µM at PRMT5-MEP50 enzyme and greater than 10 µM with A549 cells.

Consider `Nc1ncnc2c1ccn2[C@@H]1C[C@H](C(=O)N2CCCC23CCNCC3)[C@@H](O)[C@H]1O` [Compound 163], for which the values for the IC50 on PRMT5-MEP50 enzyme and in the experiment on A549 cells were 0.00851 µM and 0.126 µM, respectively.

Turning to `CN1CCC2(CCCN2C[C@H]2O[C@@H](c3ccc4c(N)ncnn34)[C@H](O)[C@@H]2O)CC1` [Compound 135], the IC50 at PRMT5-MEP50 enzyme is 0.617 µM; with A549 cells it was roughly 1.05 µM.

Take `Nc1ncnc2c1ncn2[C@@H]1O[C@H](CN2CC3(CCN3)C2)[C@@H](O)[C@H]1O` [Compound 88]: the IC50 at PRMT5-MEP50 enzyme is 46.8 µM; with A549 cells, greater than 10 µM.

On to `Nc1ncnn2c([C@@H]3O[C@H](CN4CCOC[C@H]4CN4CCCC4)[C@@H](O)[C@H]3O)ccc12` [Compound 131], for which the IC50 is greater than 10 µM on PRMT5-MEP50 enzyme and greater than 20 µM in the experiment on A549 cells.

With `O[C@@H]1[C@H](O)[C@@H](CN2CCCC23CCNCC3)O[C@H]1n1cnc2c(NC3CC3)ncnc21` [Compound 270], the IC50 on PRMT5-MEP50 enzyme is 4.68 µM and 4.27 µM and 3.47 µM; in the experiment with A549 cells, greater than 10 µM.

For `NCC1CN(C[C@H]2O[C@@H](n3ccc4c(N)ncnc43)[C@H](O)[C@@H]2O)CCO1` (stereo partly drawn) [Compound 48], the figures for the IC50 at PRMT5-MEP50 enzyme and in the experiment with A549 cells were 0.145 µM and roughly 2.57 µM, respectively.

In the case of `Nc1ncnc2c1ccn2[C@@H]1O[C@H](CN2CCCCC23CCNCC3)[C@@H](O)[C@H]1O` [Compound 113], the IC50 at PRMT5-MEP50 enzyme was 0.00813 µM; in the experiment with A549 cells, 0.145 µM.

Regarding `Nc1ncnc2c1ccn2[C@@H]1O[C@H](CN2CCCC3(CCCCN3)C2)[C@@H](O)[C@H]1O` (single isomer, unassigned) [Compound 35], the IC50 was 0.105 µM on PRMT5-MEP50 enzyme and roughly 6.17 µM with A549 cells.

Take `NCC[C@@H]1CC(F)(F)CN1C[C@H]1O[C@@H](c2ccc3c(N)ncnn23)[C@H](O)[C@@H]1O` [Compound 156]: the IC50 on PRMT5-MEP50 enzyme is 0.0263 µM; with A549 cells, 1.05 µM.

`CC(C)C(=O)O[C@H]1[C@@H](O)[C@H](n2ccc3c(N)ncnc32)O[C@@H]1CN1CCCC12CCN(C)CC2` [Compound 96]: the IC50 is 0.631 µM on PRMT5-MEP50 enzyme and 0.0204 µM with A549 cells.

In the case of `Nc1ncnn2c([C@@H]3O[C@H](CN4CCOC[C@H]4CN4CCC(F)(F)C4)[C@@H](O)[C@H]3O)ccc12` [Compound 130], the figures for the IC50 at PRMT5-MEP50 enzyme and in the experiment on A549 cells were greater than 10 µM and greater than 20 µM, respectively.

Take `NCC[C@@H]1CCCN1C[C@H]1CN(C2C=Cc3c(N)ncnc32)[C@H](O)[C@@H]1O` (stereo partly drawn) [Compound 127]: the figures for the IC50 on PRMT5-MEP50 enzyme and with A549 cells were 0.0617 µM and roughly 2.75 µM, respectively.
